Counter-ions that a name gives are not always drawn. Like-named read-outs stand apart in the source and are kept apart here.
Assays:
[1] = system: primary neurons; assay: TMRM fluorescence assay of inner mitochondrial membrane potential (ΔΨm); details: for Emax / EC50: Mus musculus, Primary neuron; for Emax: read-out: TMRM (Effect-size); for EC50: read-out: TMRM-EC50
Method: Mitochondrial dyes. To assay the electrochemical potential across the inner mitochondrial membrane of cultured cells, we used the cell-permeant dye tetramethylrhodamine methyl ester (TMRM). For co-localization studies with Mt-GFP, TMRM was used at 20 nM on DIV14 and incubated for 30 min prior to imaging. For the orthogonal screen of compounds, TMRM was added to primary neurons on DIV13 at 10 nM, one hr prior to pintooling selected compounds, and incubated for 24 hr. Cells were washed 2× with pre-warmed fresh feeding media without B27 before measurements with a plate reader.
(§1) A CLARIOstar (BMG LABTECH) microplate reader was used to measure fluorescence of TMRM and luminescence produced from the ATP.
(§2) Mitochondrial membrane potential (Δψm) and luminescence-based ATP assays. […] Changes of ΔΨm in each well were monitored using the mitochondrial-specific, fluorescent dye TMRM (tetramethyl rhodamine, methyl ester; Molecular Probes) and measured using a CLARIOstar plate reader. […] This concentration was used throughout our experiments. […] Wells in columns 1 and 24 were not loaded with TMRM; these served to measure background signal which was subtracted from the wells to which TMRM was added. To measure the total ATP levels in neurons we utilized the CellTiter-Glo® luminescence-based ATP assay (Promega). DIV13 primary neurons were cultured for 24 h with either DMSO carrier or compound treatment, followed by removing 55 μl culture medium from each well. Plates were maintained at room temperature for 25 m, and 25 μl of CellTiter-Glo® Reagent with the substrate luciferin was then added to each well (Promega). Plates were covered with aluminum foil and shaken vigorously on an orbital shaker for 10 m at 200 rpm and maintained at room temperature for an additional 2 m in dark before being read with the plate reader set to the luminescence mode.
Compound library and hit picking rules. We screened 2400 compounds from the MicroSource Spectrum library. […] FIGS. 13A-13E provide details of the assays used from which hit picking rules were made. In essence, the average fluorescence for each compound in the TMRM assay was determined and compared to the average fluorescence for compounds in the population on each assay plate to produce a Z-score. The Z-scores for each individual compound assayed across the four replicate plates was then averaged.

[2] = system: primary neurons; assay: CellTiter-Glo luminescence-based ATP assay; type: cell-based, mouse; details: for ATP: ATP orthogonal screen, 24 h; for Emax / EC50: Mus musculus, Primary neuron, dose response; for Emax: maximal percent increase relative to in-plate DMSO controls, read-out: ATP (Effect-size); for EC50: 15 concentrations from 6 nM to 100 uM
Method: Measurement of ATP production. The total amount of ATP produced by cultured primary neurons was measured by CellTiter-Glo Luminescent Cell Viability Assay (Promega). A recombinant luciferase enzyme catalyzed the mono-oxygenation of luciferin while hydrolyzing ATP produced by the cells and emitting light. We followed the manufacturer's protocol with primary neurons on DIV14.
as §1, §2
Compound library and hit picking rules. We screened 2400 compounds from the MicroSource Spectrum library. […] FIGS. 13A-13E provide details of the assays used from which hit picking rules were made. In essence, the average fluorescence for each compound in the TMRM assay was determined and compared to the average fluorescence for compounds in the population on each assay plate to produce a Z-score. The Z-scores for each individual compound assayed across the four replicate plates was then averaged. Because of significant well location effects (outer rows) on each assay plate (FIG. 13G), we selected primary hits as enhancing well fluorescence above the μplate by 3σplate for inner row wells (rows C-N, columns 3-22), and by 2.5σplate for outer row wells (rows A, B, O, P; columns 3-22) (FIG. 14C-D). […] All orthogonal assays employed inner wells of the 384-well plates.

CCCNC(C)(C)COC(=O)c1ccccc1 [meprylcaine hydrochloride]
TMRM Primary ([1]; primary screen, 12.5 μM, 24 h): 3.56 Z-scores
TMRM Rescreen ([1]; rescreen, 24 h): 5.91 Z-scores
ATP [2]: 6.05 Z-scores

CC(=O)Oc1ccc2c(c1)CCC1C2CC[C@]2(C)C(=O)CCC12 (stereo partly drawn) [estrone acetate]
TMRM Primary ([1]; primary screen, 12.5 μM, 24 h): 3.26 Z-scores
TMRM Rescreen ([1]; rescreen, 24 h): 5.89 Z-scores
ATP [2]: 3.36 Z-scores

CN1CCC(=C2c3ccccc3CC(=O)c3sccc32)CC1 [ketotifen fumarate]
hit in TMRM primary screen when assayed at 4 h ([1]; 12.5 μM): ketotifen fumarate*
TMRM Primary ([1]; primary screen, 12.5 μM, 24 h): 3.91 Z-scores
TMRM Rescreen ([1]; rescreen, 24 h): 3.98 Z-scores
ATP [2]: 5.58 Z-scores

CC(C)NC[C@@H](O)COc1cccc2ccccc12.Cl [dexpropranolol hydrochloride [R(+)]]
TMRM Primary ([1]; primary screen, 12.5 μM, 24 h): 4.37 Z-scores
TMRM Rescreen ([1]; rescreen, 24 h): 4.79 Z-scores
ATP [2]: 6.22 Z-scores

CN(C)CC/C=C1/c2ccccc2Sc2ccc(Cl)cc21 [chlorprothixene hydrochloride]
TMRM Primary ([1]; primary screen, 12.5 μM, 24 h): 6.17 Z-scores
TMRM Rescreen ([1]; rescreen, 24 h): 5.04 Z-scores
ATP [2]: 3.17 Z-scores

C1CCN2C[C@@H]3C[C@@H](CN4CCCC[C@@H]34)[C@H]2C1 [sparteine sulfate]
TMRM Primary ([1]; primary screen, 12.5 μM, 24 h): 2.65 Z-scores
TMRM Rescreen ([1]; rescreen, 24 h): 1.95 Z-scores
ATP [2]: 2.92 Z-scores

CCCCNc1ccc(C(=O)OCCOCCOCCOCCOCCOCCOCCOCCOCCOC)cc1 [benzonatate]
TMRM Primary ([1]; primary screen, 12.5 μM, 24 h): 2.78 Z-scores
TMRM Rescreen ([1]; rescreen, 24 h): 8.21 Z-scores
ATP [2]: 4.35 Z-scores

COc1ccc(CN(CCN(C)C)c2ncccn2)cc1 [thonzylamine hydrochloride]
TMRM Primary ([1]; primary screen, 12.5 μM, 24 h): 3.16 Z-scores
TMRM Rescreen ([1]; rescreen, 24 h): 3.21 Z-scores
ATP [2]: 5.17 Z-scores

C=C[C@](C)(O)CC[C@@H]1[C@@]2(C)CCCC(C)(C)[C@@H]2CC[C@@]1(C)O [sclareol]
TMRM Primary ([1]; primary screen, 12.5 μM, 24 h): 2.80 Z-scores
TMRM Rescreen ([1]; rescreen, 24 h): 5.41 Z-scores
ATP [2]: 4.64 Z-scores

C[C@]12CC[C@@H]3c4ccc(O)cc4C[C@@H](CCCCCCCCC[S+]([O-])CCCC(F)(F)C(F)(F)F)[C@H]3[C@@H]1CC[C@@H]2O (stereo partly drawn) [fulvestrant]
TMRM Primary ([1]; primary screen, 12.5 μM, 24 h): 3.31 Z-scores
TMRM Rescreen ([1]; rescreen, 24 h): 6.27 Z-scores
ATP [2]: 4.27 Z-scores

CCOC(=O)C1=C[C@]2(CC)CCCN3CCc4c(n1c1ccccc41)[C@@H]32 [vinpocetine]
TMRM Primary ([1]; primary screen, 12.5 μM, 24 h): 5.76 Z-scores
TMRM Rescreen ([1]; rescreen, 24 h): 6.16 Z-scores
ATP [2]: 6.29 Z-scores

COc1ccc(-c2coc3cc(O)cc(OC)c3c2=O)cc1 [5,4′-dimethoxy-7-hydroxyisoflavone]
TMRM Primary ([1]; primary screen, 12.5 μM, 24 h): 5.24 Z-scores
TMRM Rescreen ([1]; rescreen, 24 h): 6.90 Z-scores
ATP [2]: 5.76 Z-scores

CCc1nn(CCCN2CCN(c3cccc(Cl)c3)CC2)c(=O)n1CCOc1ccccc1 [nefazodone hydrochloride]
TMRM Primary ([1]; primary screen, 12.5 μM, 24 h): 4.00 Z-scores
TMRM Rescreen ([1]; rescreen, 24 h): 6.11 Z-scores
ATP [2]: 6.30 Z-scores

CC[N+]1(C)CCCC(OC(=O)C(O)(c2ccccc2)c2ccccc2)C1 (stereo not drawn) [pipenzolate bromide]
TMRM Primary ([1]; primary screen, 12.5 μM, 24 h): 3.14 Z-scores
TMRM Rescreen ([1]; rescreen, 24 h): 7.09 Z-scores
ATP [2]: 3.45 Z-scores

O=c1[nH]c2ccccc2n1CCCN1CCC(n2c(=O)[nH]c3cc(Cl)ccc32)CC1 [DOMPERIDONE]
Emax [1]: 28.3%
TMRM Primary ([1]; primary screen, 12.5 μM, 24 h): 3.33 Z-scores
TMRM Rescreen ([1]; rescreen, 24 h): 5.58 Z-scores
ATP [2]: 5.20 Z-scores
Emax [2]: 13%

C/C(=C\CO)CCC[C@H](C)CCC[C@H](C)CCCC(C)C [phytol]
TMRM Primary ([1]; primary screen, 12.5 μM, 24 h): 3.42 Z-scores
TMRM Rescreen ([1]; rescreen, 24 h): 2.70 Z-scores
ATP [2]: 4.63 Z-scores

COc1ccc(CN=c2[nH]c(N3CCC[C@H]3CO)ncc2C(=O)NCc2ncccn2)cc1Cl [avanafil]
TMRM Primary ([1]; primary screen, 12.5 μM, 24 h): 3.13 Z-scores
TMRM Rescreen ([1]; rescreen, 24 h): 3.42 Z-scores
ATP [2]: 1.30 Z-scores

OC(CCN1CCCC1)(c1ccccc1)C1CCCCC1 (stereo not drawn) [procyclidine hydrochloride]
Emax [1]: 23.3%
EC50 [1]: 850 nM
TMRM Primary ([1]; primary screen, 12.5 μM, 24 h): 4.55 Z-scores
TMRM Rescreen ([1]; rescreen, 24 h): 6.91 Z-scores
ATP [2]: 7.14 Z-scores
EC50 [2]: 240 nM
Emax [2]: 18.7%

C[C@]12CC[C@@H](O)C[C@@H]1CC[C@@H]1[C@@H]2CC[C@]2(C)C(=O)CC[C@@H]12 [androsterone]
TMRM Primary [1]: 3.77 Z-scores
TMRM Rescreen [1]: 4.76 Z-scores
ATP [2]: 5.63 Z-scores

CC(C)(c1ccc(O)cc1)c1ccc(O)cc1 [bisphenol a]
hit in TMRM primary screen when assayed at 4 h ([1]; 12.5 μM): bisphenol a*
TMRM Primary ([1]; primary screen, 12.5 μM, 24 h): 3.35 Z-scores
TMRM Rescreen ([1]; rescreen, 24 h): 7.40 Z-scores
ATP [2]: 4.73 Z-scores

CCN(CC)CCOC(=O)C(c1ccccc1)C1CCCCC1 (stereo not drawn) [drofenine hydrochloride]
TMRM Primary ([1]; primary screen, 12.5 μM, 24 h): 3.68 Z-scores
TMRM Rescreen ([1]; rescreen, 24 h): 5.96 Z-scores
ATP [2]: 4.84 Z-scores

CN(C)c1cc(NC(=O)CNC(C)(C)C)c(O)c2c1C[C@H]1C[C@H]3[C@H](N(C)C)C(O)=C(C(N)=O)C(=O)[C@@]3(O)C(O)=C1C2=O [tigecycline]
TMRM Primary ([1]; primary screen, 12.5 μM, 24 h): 3.91 Z-scores
TMRM Rescreen ([1]; rescreen, 24 h): 5.95 Z-scores
ATP [2]: 4.97 Z-scores

c1ccc(-c2ccc(C(c3ccccc3)n3ccnc3)cc2)cc1 (stereo not drawn) [bifonazole]
TMRM Primary ([1]; primary screen, 12.5 μM, 24 h): 3.81 Z-scores
TMRM Rescreen ([1]; rescreen, 24 h): 1.84 Z-scores
ATP [2]: 4.00 Z-scores

COc1cc2oc3cc(OC)c(OC)c(CC=C(C)C)c3c(=O)c2c(O)c1CC=C(C)C [1-hydroxy-3,6,7-trimethoxy-2,8-diprenylxanthone]
TMRM Primary ([1]; primary screen, 12.5 μM, 24 h): 3.34 Z-scores
TMRM Rescreen ([1]; rescreen, 24 h): 3.27 Z-scores
ATP [2]: 5.44 Z-scores

OC(CCN1CCCCC1)(c1ccccc1)C1CCCCC1 (stereo not drawn) [trihexyphenidyl hydrochloride]
Emax [1]: 20%
EC50 [1]: 3200 nM
TMRM Primary ([1]; primary screen, 12.5 μM, 24 h): 6.07 Z-scores
TMRM Rescreen ([1]; rescreen, 24 h): 7.08 Z-scores
ATP [2]: 5.95 Z-scores
EC50 [2]: 170 nM
Emax [2]: 17.8%

COc1cccc2c1C(=O)c1c(O)c3c(c(O)c1C2=O)C[C@@](O)(C(=O)CO)C[C@@H]3O[C@H]1C[C@H](N)[C@H](O)[C@H](C)O1 [doxorubicin]
TMRM Primary ([1]; primary screen, 12.5 μM, 24 h): 4.02 Z-scores
TMRM Rescreen ([1]; rescreen, 24 h): 5.05 Z-scores
ATP [2]: 4.00 Z-scores

COC(=O)C[C@H]1C2(C)CC34OC5(C)O[C@@]6([C@H](OC(C)=O)C(OC(C)=O)[C@]7(C)C(/C(=C(/O)C(C)C)C(=O)O[C@H]7c7ccoc7)[C@@]6(O5)[C@H](OC(C)=O)[C@@]3(O)C2OC(=O)C(C)C)[C@]14C (stereo partly drawn) [bussein]
TMRM Primary ([1]; primary screen, 12.5 μM, 24 h): 3.44 Z-scores
TMRM Rescreen ([1]; rescreen, 24 h): 3.92 Z-scores
ATP [2]: 5.58 Z-scores

CC(=O)c1ccc2c(c1)N(CCCN1CCC(CCO)CC1)c1ccccc1S2 [piperacetazine]
TMRM Primary ([1]; primary screen, 12.5 μM, 24 h): 5.30 Z-scores
TMRM Rescreen ([1]; rescreen, 24 h): 5.01 Z-scores
ATP [2]: 5.80 Z-scores

COc1cc(O)c2c(=O)cc(C)oc2c1CC=C(C)C [heteropeucenin, methyl ether]
TMRM Primary ([1]; primary screen, 12.5 μM, 24 h): 3.45 Z-scores
TMRM Rescreen ([1]; rescreen, 24 h): 4.33 Z-scores
ATP [2]: 5.92 Z-scores

CCOC(=O)[C@H](CCc1ccccc1)N[C@H]1CCc2ccccc2N(CC(=O)O)C1=O [benazepril hydrochloride]
TMRM Primary ([1]; primary screen, 12.5 μM, 24 h): 3.43 Z-scores
TMRM Rescreen ([1]; rescreen, 24 h): 2.43 Z-scores
ATP [2]: 5.26 Z-scores

CC12CCC3c4ccc(OCc5ccccc5)cc4CCC3C1C[C@@H](O)[C@@H]2O (stereo partly drawn) [estriol benzyl ether]
TMRM Primary ([1]; primary screen, 12.5 μM, 24 h): 3.17 Z-scores
TMRM Rescreen ([1]; rescreen, 24 h): 6.67 Z-scores
ATP [2]: 2.03 Z-scores

CC1(C)[C@H](O)CC(=O)[C@]2(C)[C@H]3CC[C@@]4(C)[C@H](c5ccoc5)OC(=O)[C@H]5O[C@]54[C@]3(C)C(=O)C[C@@H]12 [1,7-dideacetoxy-1,7-dioxo-3-deacetylkhivorin]
TMRM Primary ([1]; primary screen, 12.5 μM, 24 h): 3.65 Z-scores
TMRM Rescreen ([1]; rescreen, 24 h): 4.00 Z-scores
ATP [2]: 5.46 Z-scores

From patent US20230003721A1, “MITOTHERAPEUTICS FOR THE TREATMENT OF BRAIN DISORDERS” (The University of Florida Research Foundation, Inc., priority 2019, published 2023)
